Assay results from US12145925B2, “Phthalazine derivatives as inhibitors of PARP1, PARP2, and/or tubulin useful for the treatment of cancer” (THE REGENTS OF THE UNIVERSITY OF CALIFORNIA, priority 2016, dated 2024).

Molecular target: T1, PARP2 (Homo sapiens, UniProt Q9UGN5)
T1 construct: purchased BPS Bioscience 80552
Assay: PARP2 enzymatic activity inhibition (BPS Bioscience PARP2 Assay Kit)
Format: biochemical
Settings: incorporation of biotinylated poly(ADP-ribose) onto histone proteins
Experimental: The half maximal inhibitory concentration (IC50) with respect to PARP2 inhibition was determined for each test compound by using BPS Bioscience PARP2 Assay Kit, according to the manufacturer's protocol (Cat #80552, San Diego, CA). This assay measures the incorporation of biotinylated poly(ADP-ribose) onto histone proteins in a 96-well strip well format. This assay is ideal for the determination of IC50 values of known or suspected PARP inhibitors. Briefly, stock solutions of each test compound were prepared in DMSO. Histone strip wells were incubated for 30 minutes at room temperature with 50 μl/well of 1×PARP Buffer to rehydrate the histones. Serial dilutions of either test compound were added to appropriate wells. Diluted PARP enzyme (0.5 Unit/well) was then added to the wells containing compounds, and incubated for 10 minutes at room temperature. […] Three types of control wells were also analyzed; i. A negative control without PARP was prepared to determine background absorbance. ii. […] The reactions were then stopped by adding 50 μl per well of 0.2M HCl or 5% Phosphoric Acid and read the absorbance at 450 nm. The IC50 values were determined by performing non-linear regression analysis fitting velocities and the logarithm of inhibitor concentrations to a sigmoidal dose response with a variable slope model using the GraphPad Prism 6.0 software. […]

T1 sequence (Q9UGN5 whole entry): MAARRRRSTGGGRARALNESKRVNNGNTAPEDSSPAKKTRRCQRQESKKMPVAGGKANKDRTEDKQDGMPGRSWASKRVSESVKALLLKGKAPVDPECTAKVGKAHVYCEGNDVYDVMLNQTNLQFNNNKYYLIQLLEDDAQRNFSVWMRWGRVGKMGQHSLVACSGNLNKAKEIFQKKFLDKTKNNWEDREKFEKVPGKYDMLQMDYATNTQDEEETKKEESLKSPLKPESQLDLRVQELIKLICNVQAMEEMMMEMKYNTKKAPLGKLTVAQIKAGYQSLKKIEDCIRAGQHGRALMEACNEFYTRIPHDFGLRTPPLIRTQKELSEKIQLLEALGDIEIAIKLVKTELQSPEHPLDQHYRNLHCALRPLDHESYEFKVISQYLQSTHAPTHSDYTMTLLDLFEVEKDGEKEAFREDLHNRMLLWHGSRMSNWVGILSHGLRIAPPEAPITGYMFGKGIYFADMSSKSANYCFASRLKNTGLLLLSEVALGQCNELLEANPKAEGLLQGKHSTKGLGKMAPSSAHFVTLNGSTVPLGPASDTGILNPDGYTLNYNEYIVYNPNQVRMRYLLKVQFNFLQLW

COC(=O)Nc1nc2cc(-c3cc(Cc4n[nH]c(=O)c5ccccc45)ccc3F)ccc2[nH]1 [Ex 1.1, methyl (5-(2-fluoro-5-((4-oxo-3,4-dihydrophthalazin-1-yl)methyl)phenyl)-1H-benzimidazol-2-yl)carbamate]
IC50: 0.05 nM
